Laboratory results: patent US20240408216A1, “PROTEIN INHIBITOR OR DEGRADING AGENT, PHARMACEUTICAL COMPOSITION CONTAINING SAME AND PHARMACEUTICAL USE” (JING MEDICINE TECHNOLOGY (SHANGHAI) LTD., priority 2021, published 2024)

Assays:
[1] = tested on: BaF3 (EGFR L858R/T790M/C797S); test: Cell proliferation IC50 assay (Cell Titer GLO), BaF3 LTC cells; assay type: cell-based; conditions: Mus musculus, Ba/F3 EGFR, Table 6, 72 h
Method: (§1) IC50 of compounds in the present invention was determined by Cell Titer GLO reagent from Promega. The procedures are as follows:
(§2) Tumor cells were cultured in specified medium in an incubator at 37° C. and 5% CO2. The cells were passaged periodically. Cells at the logarithmic growth phase were collected for plating at a density of 2000-4000 cells/well. The next day, the compounds of the present invention were serially diluted and added to the cells, with DMSO being the negative control and the culture media without cells being the blank control. The plate was incubated in the incubator for 72 h. The cell viability assay was performed by adding the detection reagents to the cell culture media according to Cell Titer GLO reagent instructions and detecting luminescent signals on an EnVision microplate reader (PerkinElmer).
(§3) Inhibition of cell growth by the compounds of the present invention was plotted by Prism Graphpad software for statistically calculating the IC50 of the compound of the present invention.

A431 = test: Cell proliferation IC50 assay (Cell Titer GLO), A431 cells; assay type: cell-based; conditions: Homo sapiens, A-431; Table 6; A431, 72 h; read-out: A431 IC50
Method: as §1, §2, §3

BaF3 (EGFR Del19/C797S) = target: T1, BaF3 (EGFR Del19/C797S) (Homo sapiens, UniProt P00533, C797S, cells depend on it, form not given); test: Cell proliferation IC50 assay (Cell Titer GLO), BaF3 DC cells; assay type: cell-based, mouse; conditions: Table 6, 72 h
T1 construct: BaF3 (EGFR Del19/C797S)|DC|RPMI1640 + 10% FBS
Method: as §1, §2, §3

BaF3 (EGFR WT) = test: Cell proliferation IC50 assay (Cell Titer GLO), BaF3 WT cells; assay type: cell-based; conditions: Mus musculus, Ba/F3 EGFR, Table 6, 10 ng/ml EGF, 72 h
Method: as §1, §2, §3

T1 sequence (P00533 with tags, fused parts or gaps DEL746-750/C797S, form open): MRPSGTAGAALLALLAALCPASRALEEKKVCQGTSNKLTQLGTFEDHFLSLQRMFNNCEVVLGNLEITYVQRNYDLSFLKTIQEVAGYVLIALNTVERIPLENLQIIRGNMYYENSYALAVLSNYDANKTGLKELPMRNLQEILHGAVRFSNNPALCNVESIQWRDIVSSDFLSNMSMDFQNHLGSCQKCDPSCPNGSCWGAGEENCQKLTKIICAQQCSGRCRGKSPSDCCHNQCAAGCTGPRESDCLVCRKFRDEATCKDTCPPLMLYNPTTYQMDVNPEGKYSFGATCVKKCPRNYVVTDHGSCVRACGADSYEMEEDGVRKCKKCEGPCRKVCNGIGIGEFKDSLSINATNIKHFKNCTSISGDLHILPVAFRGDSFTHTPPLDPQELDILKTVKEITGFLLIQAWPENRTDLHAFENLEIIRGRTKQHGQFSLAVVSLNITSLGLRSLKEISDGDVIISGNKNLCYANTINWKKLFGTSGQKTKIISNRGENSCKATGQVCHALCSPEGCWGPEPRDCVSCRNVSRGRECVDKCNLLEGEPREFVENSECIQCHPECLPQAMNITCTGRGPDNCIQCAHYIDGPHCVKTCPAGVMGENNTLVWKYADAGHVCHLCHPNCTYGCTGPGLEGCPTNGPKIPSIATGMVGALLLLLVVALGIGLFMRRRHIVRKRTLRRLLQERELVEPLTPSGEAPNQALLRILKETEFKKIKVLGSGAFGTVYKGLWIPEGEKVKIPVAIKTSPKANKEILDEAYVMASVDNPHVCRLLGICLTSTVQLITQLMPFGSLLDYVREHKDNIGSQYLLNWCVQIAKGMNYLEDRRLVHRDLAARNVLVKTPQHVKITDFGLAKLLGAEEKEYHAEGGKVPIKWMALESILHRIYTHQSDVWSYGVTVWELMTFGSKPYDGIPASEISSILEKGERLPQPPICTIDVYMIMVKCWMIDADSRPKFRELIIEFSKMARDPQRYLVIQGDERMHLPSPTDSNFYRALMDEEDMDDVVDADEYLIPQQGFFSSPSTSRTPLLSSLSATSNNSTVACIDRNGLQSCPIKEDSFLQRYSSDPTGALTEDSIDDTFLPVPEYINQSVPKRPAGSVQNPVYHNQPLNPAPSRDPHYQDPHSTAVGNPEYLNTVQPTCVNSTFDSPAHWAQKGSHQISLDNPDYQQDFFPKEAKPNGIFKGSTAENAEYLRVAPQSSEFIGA

Row | SMILES | IC50 [1] [nM] | IC50 (A431) [nM] | IC50 (BaF3 (EGFR Del19/C797S)) [nM] | IC50 (BaF3 (EGFR WT)) [nM]
1 | CCc1cc(Nc2ncc(Cl)c(Nc3ccc4[nH]ncc4c3P(C)(C)=O)n2)c(OC)cc1N1CCC(N2CCN(CCC#Cc3cccc4c3CN(C3CCC(=O)NC3=O)C4=O)CC2)CC1 (stereo not shown) [Example E51] | 57.8 | 1090 | 14 | > 4000
2 | CCc1cc(Nc2ncc(Cl)c(Nc3ccccc3P(C)(C)=O)n2)c(OC)cc1N1CCC(N2CCN(CCC#Cc3c(F)ccc4c3CN(C3CCC(=O)NC3=O)C4=O)CC2)CC1 (stereo not shown) [Example E54] | 51.4 | 1180 | 20.3 | 353
3 | CCc1cc(Nc2ncc(Cl)c(Nc3ccccc3P(C)(C)=O)n2)c(OC)cc1N1CCC(N2CCN(CCCCOc3ccc4c(c3F)CN(C3CCC(=O)NC3=O)C4=O)CC2)CC1 (stereo not shown) [Example E59] | 67.1 | 1440 | 22.7 | 1320
4 | CCc1cc(Nc2ncc(Cl)c(Nc3ccccc3P(C)(C)=O)n2)c(OC)cc1N1CCC2(CC1)CC(N(C)CCCC#Cc1cccc3c1CN(C1CCC(=O)NC1=O)C3=O)C2 (stereo not shown) [Example E60] | 77.1 | > 4000 | 39.7 | > 4000
5 | COc1cc(N2CCC3(CCN(CCCC#Cc4cccc5c4CN(C4CCC(=O)NC4=O)C5=O)CC3)CC2)c(C2CC2)cc1Nc1ncc(Cl)c(Nc2ccccc2P(C)(C)=O)n1 (stereo not shown) [Example E62] | 96.1 | > 4000 | 51.1 | > 4000
6 | CCc1cc(Nc2ncc(Cl)c(Nc3ccccc3P(C)(C)=O)n2)c(OC)cc1N1CCC(N2CCN(CCOc3cc(F)cc4c3CN(C3CCC(=O)NC3=O)C4=O)CC2)CC1 (stereo not shown) [Example E66] | 59.7 | 1990 | 10.6 | 2490
7 | CCc1cc(Nc2ncc(-n3cc(C)cn3)c(Nc3ccccc3P(C)(C)=O)n2)c(OC)cc1N1CCC(N2CCN(CCOc3ccc4c(c3)CN(C3CCC(=O)NC3=O)C4=O)CC2)CC1 (stereo not shown) [Example E68] | > 4000 | > 4000 | 18.6 | > 4000
8 | CCc1cc(Nc2ncc(-c3cnn(C)c3)c(Nc3ccccc3P(C)(C)=O)n2)c(OC)cc1N1CCC(N2CCN([C@H]3C[C@H](Oc4cccc5c4CN(C4CCC(=O)NC4=O)C5=O)C3)CC2)CC1 (stereo partly shown) [Example E70] | > 4000 | 1250 | 0.7 | 267
9 | CCc1cc(Nc2ncc(Cl)c(Nc3ccccc3P(C)(C)=O)n2)c(OC)cc1N1CCC2(CCN(CCCC#Cc3c(F)ccc4c3CN(C3CCC(=O)NC3=O)C4=O)CC2)CC1 (stereo not shown) [Example E74] | 160 | > 4000 | 37.6 | > 4000
10 | CCc1cc(Nc2ncc(Cl)c(Nc3ccccc3P(C)(C)=O)n2)c(OC)cc1N1CCC(N2CCc3ccc(Oc4cccc5c4CN(C4CCC(=O)NC4=O)C5=O)cc3C2)CC1 (stereo not shown) [Example E76] | 147 | > 4000 | 30.1 | > 4000
11 | CCc1cc(Nc2ncc(Cl)c(Nc3ccccc3P(C)(C)=O)n2)c(OC)cc1N1CCC(N2CCN(C3(C#Cc4cccc5c4CN(C4CCC(=O)NC4=O)C5=O)CC3)CC2)CC1 (stereo not shown) [Example E84] | 85.5 | 1970 | 25.4 | > 4000
12 | CCc1cc(Nc2ncc(Cl)c(Nc3ccccc3P(C)(C)=O)n2)c(OC)cc1N1CCC(N2CCN(C3(/C=C\c4cccc5c4CN(C4CCC(=O)NC4=O)C5=O)CC3)CC2)CC1 (stereo not shown) [Example E85] | 53 | 1370 | 13.7 | 1880
13 | CCc1cc(Nc2ncc(Cl)c(Nc3ccccc3P(C)(C)=O)n2)c(OC)cc1N1CCC(N2CCN(C(=O)CCCOc3cccc4c3CN(C3CCC(=O)NC3=O)C4=O)CC2)CC1 (stereo not shown) [Example E88] | 59.9 | 1610 | 9.1 | 2700
14 | CCc1cc(Nc2ncc(Cl)c(Nc3ccccc3P(C)(C)=O)n2)c(OC)cc1N1CCC2(CCN(C(=O)CCCOc3cccc4c3CN(C3CCC(=O)NC3=O)C4=O)CC2)CC1 (stereo not shown) [Example E90] | 143 | ≥ 3700 | 13.1 | 2070
15 | CCc1cc(Nc2ncc(Cl)c(Nc3ccccc3P(C)(C)=O)n2)c(OC)cc1N1CCC(N2CCN(CCCCOc3cc4c(cc3F)C(=O)N(C3CCC(=O)NC3=O)C4)CC2)CC1 (stereo not shown) [Example E92] | 72.6 | 1170 | 12.7 | 692
16 | CCc1cc(Nc2ncc(Cl)c(Nc3ccccc3P(C)(C)=O)n2)cc(C#N)c1N1CCC(N2CCN(CCC#Cc3cccc4c3CN(C3CCC(=O)NC3=O)C4=O)CC2)CC1 (stereo not shown) [Example E94] | 57 | 524 | 40.2 | 50.6
17 | COc1cc2c(cc1Nc1ncc(Cl)c(Nc3ccccc3P(C)(C)=O)n1)CCN(C1CCN(C(=O)COc3cccc4c3CN(C3CCC(=O)NC3=O)C4=O)CC1)C2 (stereo not shown) [Example E100] | 1130 | > 4000 | 515 | 1230
18 | CCc1cc(Nc2ncc(Cl)c(Nc3ccccc3P(C)(C)=O)n2)c(OC)cc1N1CCC(N2CCN(CCCCOc3cccc4c3CN(C3CCC(=O)NC3=O)C4=O)CC2=O)CC1 (stereo not shown) [Example E101] | 51.6 | 1440 | 6.8 | 1690
19 | CCc1cc(Nc2ncc(C(=O)OC(C)C)c(Nc3ccccc3P(C)(C)=O)n2)c(OC)cc1N1CCC(N2CCN(CCCCOc3cccc4c3CN(C3CCC(=O)NC3=O)C4=O)CC2)CC1 (stereo not shown) [Example E105] | 2060 | 1970 | 10.5 | 1490
20 | CCc1cc(Nc2ncc(Cl)c(Nc3ccccc3P(C)(C)=O)n2)c(OC)cc1N1CCC(N2CCN(CCNc3cccc4c3C(=O)N(C3CCC(=O)NC3=O)C4=O)CC2)CC1 (stereo not shown) [Example E106] | 226 | 1370 | 16.8 | > 4000
21 | CCc1cc(Nc2ncc(Cl)c(Nc3ccccc3P(C)(C)=O)n2)c(OC)cc1N1CCC(N2CCN(CCCc3cccc4c3CN(C3CCC(=O)NC3=O)C4=O)C(=O)C2)CC1 (stereo not shown) [Example E107] | 158 | 1340 | 12.1 | > 4000
22 | CCc1cc(Nc2ncc(Cl)c(Nc3ccccc3P(C)(C)=O)n2)c(OC)cc1N1CCC(N2Cc3cc(Oc4cccc5c4CN(C4CCC(=O)NC4=O)C5=O)ccc3C2=O)CC1 (stereo not shown) [Example E211] | 59.2 | > 4000 |  | 3300

These reach a lower IC50 [1]. Values come first.

Row | IC50 [1] [nM] | IC50 (A431) [nM] | IC50 (BaF3 (EGFR Del19/C797S)) [nM] | IC50 (BaF3 (EGFR WT)) [nM] | SMILES
23 | 16.9 | 1480 | 2.5 | 1260 | CCc1cc(Nc2ncc(Cl)c(Nc3ccccc3P(C)(C)=O)n2)c(OC)cc1N1CCC(N2CCc3ccc(Oc4cccc5c4CN(C4CCC(=O)NC4=O)C5=O)cc3CC2)CC1 (stereo not shown) [Example E34]
24 | 19.2 | 928 | 4.2 | 250 | CCc1cc(Nc2ncc(Cl)c(Nc3ccccc3P(C)(C)=O)n2)c(OC)cc1N1CCC(N2CCN(CCCCCc3cccc4c3CN(C3CCC(=O)NC3=O)C4=O)CC2)CC1 (stereo not shown) [Example E39]
25 | 44.4 | 2240 | 8.2 | ≥ 1060 | CCc1cc(Nc2ncc(Cl)c(Nc3ccccc3P(C)(C)=O)n2)c(OC)nc1N1CCC(N2CCN(CCC#Cc3cccc4c3CN(C3CCC(=O)NC3=O)C4=O)CC2)CC1 (stereo not shown) [Example E41]
26 | 43.4 | 1140 | 5.6 | 90.7 | CCc1cc(Nc2ncc(Cl)c(Nc3ccccc3N(C)S(C)(=O)=O)n2)c(OC)cc1N1CCC(N2CCN(CCC#Cc3cccc4c3CN(C3CCC(=O)NC3=O)C4=O)CC2)CC1 (stereo not shown) [Example E42]
27 | 17.9 | 3490 | 6.6 | > 4000 | CCCc1cc(Nc2ncc(Cl)c(Nc3ccccc3P(C)(C)=O)n2)c(OC)cc1N1CCC(N2CCN(CCC#Cc3cccc4c3CN(C3CCC(=O)NC3=O)C4=O)CC2)CC1 (stereo not shown) [Example E44]
28 | 36.9 | > 4000 | 9.5 | 461 | CCc1cc(Nc2ncc(Cl)c(Nc3ccccc3P(C)(C)=O)n2)c(OC)cc1N1CCC2(CCN(CCCCOc3cccc4c3CN(C3CCC(=O)NC3=O)C4=O)CC2)CC1 (stereo not shown) [Example E47]
29 | 41.7 | 1040 | 15.2 | > 4000 | COc1cc(N2CCC(N3CCN(CCC#Cc4cccc5c4CN(C4CCC(=O)NC4=O)C5=O)CC3)CC2)c(C#N)cc1Nc1ncc(Cl)c(Nc2ccccc2P(C)(C)=O)n1 (stereo not shown) [Example E52]
30 | 41.5 | > 4000 | 11.7 | > 4000 | CCc1cc(Nc2nc(Nc3ccccc3P(C)(C)=O)c3cc[nH]c3n2)c(OC)cc1N1CCC(N2CCN(CCCCOc3cccc4c3CN(C3CCC(=O)NC3=O)C4=O)CC2)CC1 (stereo not shown) [Example E64]
31 | 18 | 1470 | 1.2 | 1450 | CCc1cc(Nc2ncc(Cl)c(Nc3ccccc3P(C)(C)=O)n2)c(OC)cc1N1CCC(N2CCC3(CC(Oc4cccc5c4CN(C4CCC(=O)NC4=O)C5=O)C3)C2)CC1 (stereo not shown) [Example E83]
32 | 43.8 | > 4000 | 9.1 | 2270 | CCc1cc(Nc2ncc(Cl)c(Nc3ccccc3P(C)(C)=O)n2)c(OC)cc1N1CCC2(CCN(C(=O)COc3cccc4c3CN(C3CCC(=O)NC3=O)C4=O)CC2)CC1 (stereo not shown) [Example E104]
